{"source": "ChEMBL document CHEMBL1201862", "about": "“PubChem BioAssay data set” (2004)", "key": {"[1]": {"molecular_target": "C-C chemokine receptor type 6 (Homo sapiens, UniProt P51684)", "sequence (P51684 whole entry)": "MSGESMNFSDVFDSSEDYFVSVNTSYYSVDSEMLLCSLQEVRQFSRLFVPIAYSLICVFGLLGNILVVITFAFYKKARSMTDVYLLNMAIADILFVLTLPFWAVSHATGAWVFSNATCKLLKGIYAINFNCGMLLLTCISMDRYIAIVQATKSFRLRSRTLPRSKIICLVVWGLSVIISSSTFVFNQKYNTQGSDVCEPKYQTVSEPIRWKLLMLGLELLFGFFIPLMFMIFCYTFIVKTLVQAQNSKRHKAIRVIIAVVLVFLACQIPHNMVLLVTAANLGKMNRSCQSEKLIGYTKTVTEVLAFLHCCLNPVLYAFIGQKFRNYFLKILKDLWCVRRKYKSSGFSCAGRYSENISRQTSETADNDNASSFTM", "experiment": "antagonism of CCR6 beta-arrestin recruitment – cell-based, luminescent beta-arrestin readout, dose response (AID 504728)", "assay_type": "functional"}, "Beta-galactosidase": {"molecular_target": "Beta-galactosidase (Escherichia coli, UniProt Q8VNN2)", "experiment": "detection-enzyme interference by beta-gal modulators – biochemical, E. coli enzyme, set 3, artefact control for CCR6 antagonist project, dose response (AID 504712)", "assay_type": "functional"}, "Streptococcus": {"test_system": "Streptococcus", "experiment": "GAS UMAA2166 growth inhibition – luminescence, BacTiterGlo, counter-screen for streptokinase expression inhibitor project, dose response (AID 1915)", "assay_type": "functional, organism-based"}, "[2]": {"experiment": "alpha-synuclein stem-loop translation blockers – luminescence, H4 neuroglioblastoma cells, dose confirmation, confirmation (AID 2454)", "assay_type": "functional, cell-based"}, "HEK293 [3]": {"test_system": "HEK293", "experiment": "cells", "assay_type": "functional, cell-based", "conditions": "Homo sapiens"}, "HEK293 [4]": {"test_system": "HEK293", "experiment": "NOD2 signaling inhibitors in MDP-stimulated cells, cell-based, uHTS, luminescence (AID 2001)", "assay_type": "functional", "conditions": "Homo sapiens"}, "[5]": {"experiment": "Trypanosoma cruzi growth suppression in host cells – NIH3T3 host cells, beta-gal luminescence, confirmation (AID 2044);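 further: intracellular parasites grown in NIH/3T3 mouse fibroblasts as host cells; luminescent beta-galactosidase reporter signal from transgenic T. cruzi replicating inside host cells; inhibitors lower the luminescence signal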", "assay_type": "functional, cell-based"}, "[6]": {"experiment": "alpha-synuclein stem-loop luciferase translation blockers – H4 neuroglioma cells, luminescence, confirmation (AID 1988)", "assay_type": "functional, cell-based"}, "[7]": {"molecular_target": "Nucleotide-binding oligomerization domain-containing protein 2 (Homo sapiens, UniProt Q9HC29)", "sequence (Q9HC29 whole entry, the tested form may be a part)": "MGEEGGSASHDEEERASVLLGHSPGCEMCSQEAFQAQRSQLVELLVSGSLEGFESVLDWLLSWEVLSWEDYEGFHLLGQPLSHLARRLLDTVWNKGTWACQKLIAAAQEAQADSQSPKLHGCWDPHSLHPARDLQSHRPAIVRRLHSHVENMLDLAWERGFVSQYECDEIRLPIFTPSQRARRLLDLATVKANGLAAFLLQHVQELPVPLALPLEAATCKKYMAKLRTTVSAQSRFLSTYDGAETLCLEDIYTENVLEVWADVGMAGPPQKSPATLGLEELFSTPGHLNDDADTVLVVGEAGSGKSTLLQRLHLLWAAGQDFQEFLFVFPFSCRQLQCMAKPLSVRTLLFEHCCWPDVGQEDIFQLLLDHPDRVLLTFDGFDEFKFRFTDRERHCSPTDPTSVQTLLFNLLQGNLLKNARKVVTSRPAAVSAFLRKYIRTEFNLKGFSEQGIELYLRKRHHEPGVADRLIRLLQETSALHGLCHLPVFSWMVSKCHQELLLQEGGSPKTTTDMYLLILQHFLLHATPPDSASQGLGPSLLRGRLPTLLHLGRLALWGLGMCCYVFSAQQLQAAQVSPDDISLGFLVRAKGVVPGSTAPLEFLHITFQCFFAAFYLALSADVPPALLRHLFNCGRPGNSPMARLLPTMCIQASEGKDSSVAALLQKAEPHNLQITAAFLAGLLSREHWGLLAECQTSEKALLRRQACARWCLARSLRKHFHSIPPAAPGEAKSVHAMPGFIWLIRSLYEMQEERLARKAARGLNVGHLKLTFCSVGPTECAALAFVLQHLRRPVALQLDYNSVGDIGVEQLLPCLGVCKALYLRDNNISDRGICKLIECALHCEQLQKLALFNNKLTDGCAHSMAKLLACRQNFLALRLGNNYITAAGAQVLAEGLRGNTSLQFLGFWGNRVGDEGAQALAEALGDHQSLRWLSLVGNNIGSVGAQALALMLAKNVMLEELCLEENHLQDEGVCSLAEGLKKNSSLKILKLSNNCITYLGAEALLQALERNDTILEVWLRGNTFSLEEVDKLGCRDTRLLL", "experiment": "inhibition of NOD2-driven NF-kB reporter – cell-based, luminescence, uHTS, HEK293 (AID 1566)", "assay_type": "functional"}, "[8]": {"experiment": "Luminescence Cell-Based Dose Response HTS to Identify Inhibitors of 5'UTR Stem-Loop Driven Prion Protein mRNA Translation in H4 Neuroglioblastoma Cells. [Related pubchem assays: 1827 (Project Summary), 1813 (Primary HTS)]", "assay_type": "functional"}, "cells": {"experiment": "cells", "assay_type": "functional, cell-based"}, "[9]": {"experiment": "fluconazole-exposed Candida albicans growth modulators – fluorescence, retest, confirmation (AID 2467)", "assay_type": "functional, cell-based"}, "[10]": {"molecular_target": "T1, Serine/threonine-protein phosphatase (Candida dubliniensis (strain CD36 / CBS 7987 / NCPF 3949 / NRRLY-17841) (Yeast), UniProt B9W6M3)", "T1 sequence (B9W6M3 whole entry)": "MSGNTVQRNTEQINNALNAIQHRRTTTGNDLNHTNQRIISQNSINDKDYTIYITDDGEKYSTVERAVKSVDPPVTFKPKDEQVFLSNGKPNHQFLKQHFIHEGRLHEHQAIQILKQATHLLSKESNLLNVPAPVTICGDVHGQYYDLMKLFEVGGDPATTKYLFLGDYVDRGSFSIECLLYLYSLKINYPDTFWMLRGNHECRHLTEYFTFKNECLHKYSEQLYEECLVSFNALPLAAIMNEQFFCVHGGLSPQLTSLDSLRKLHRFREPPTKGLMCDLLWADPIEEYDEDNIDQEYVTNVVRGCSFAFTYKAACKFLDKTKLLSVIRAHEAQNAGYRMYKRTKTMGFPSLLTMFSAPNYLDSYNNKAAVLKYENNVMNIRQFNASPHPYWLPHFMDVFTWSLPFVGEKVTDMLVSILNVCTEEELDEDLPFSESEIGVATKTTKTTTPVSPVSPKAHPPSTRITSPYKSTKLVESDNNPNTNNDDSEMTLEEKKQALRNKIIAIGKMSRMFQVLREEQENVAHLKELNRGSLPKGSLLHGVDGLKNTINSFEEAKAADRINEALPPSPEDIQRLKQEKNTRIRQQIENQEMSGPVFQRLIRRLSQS", "experiment": "blockers of CaCl2-induced CDRE-lacZ signaling – S. cerevisiae, luminescence, secondary, dose response (AID 2388);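 further: yeast reporter cells carrying a calcineurin-responsive lacZ construct stimulated with calcium chloride; luminescent beta-galactosidase reporter signal in whole cells rather than isolated phosphatase activity; potency for inhibition where a drop in reporter signal means calcineurin blockade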", "assay_type": "functional, cell-based"}, "[11]": {"experiment": "luciferase reporter signal reduction – luminescence, H4-C neuroglioblastoma cells, dose response (AID 2458);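 further: H4 neuroglioblastoma cells stably carrying a luciferase reporter gene fusion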", "assay_type": "functional, cell-based"}, "[12]": {"molecular_target": "ATP-dependent molecular chaperone HSP82 (Candida albicans (strain WO-1) (Yeast), UniProt C4YTQ8)", "sequence (C4YTQ8 whole entry)": "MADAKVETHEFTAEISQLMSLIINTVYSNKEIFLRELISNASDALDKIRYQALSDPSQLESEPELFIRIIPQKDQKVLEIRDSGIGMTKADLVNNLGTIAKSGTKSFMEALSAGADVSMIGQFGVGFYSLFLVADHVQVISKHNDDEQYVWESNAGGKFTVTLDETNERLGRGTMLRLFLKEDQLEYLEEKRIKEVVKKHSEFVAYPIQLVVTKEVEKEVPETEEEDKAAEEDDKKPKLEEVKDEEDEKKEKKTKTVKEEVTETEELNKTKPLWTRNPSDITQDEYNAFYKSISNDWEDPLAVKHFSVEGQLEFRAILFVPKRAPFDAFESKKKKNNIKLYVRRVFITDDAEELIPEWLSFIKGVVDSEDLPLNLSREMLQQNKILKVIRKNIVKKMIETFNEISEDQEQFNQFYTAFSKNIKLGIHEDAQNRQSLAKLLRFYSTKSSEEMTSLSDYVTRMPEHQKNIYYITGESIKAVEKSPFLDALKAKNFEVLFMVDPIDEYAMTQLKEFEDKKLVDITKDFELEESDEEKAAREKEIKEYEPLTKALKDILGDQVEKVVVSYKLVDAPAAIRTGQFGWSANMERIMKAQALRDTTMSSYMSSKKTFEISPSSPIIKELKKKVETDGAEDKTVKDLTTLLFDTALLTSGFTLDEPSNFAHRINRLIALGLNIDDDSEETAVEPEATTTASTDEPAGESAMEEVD", "experiment": "steroid-induced GRE reporter decrease in yeast – S. cerevisiae, luminescence, Hsp90 inhibitor project, dose response (AID 2400);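 further: beta-galactosidase luminescence from glucocorticoid response element reporter as proxy for Hsp90 function; inhibitor potency where signal loss means Hsp90 inhibition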", "assay_type": "functional, cell-based"}, "HEK293 [13]": {"test_system": "HEK293", "experiment": "inhibition of NOD1-driven NF-kB reporter – cell-based, luminescence, uHTS, primary screen (AID 1578)", "assay_type": "functional", "conditions": "Homo sapiens"}, "[14]": {"test_system": "Streptococcus sp. 'group A'", "experiment": "Streptococcus pyogenes SK(-)GAS viability under kanamycin – luminescence, BacTiterGlo, confirmation, counter-screen for streptokinase expression inhibitor project, dose response (AID 1900)", "assay_type": "functional, organism-based"}, "INS1": {"test_system": "INS1", "experiment": "INS-1E survival protection against cytokine death – cell-based, luminescence, retest, dose response (AID 449756);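 further: cell death triggered by IL-1 beta plus TNF-alpha plus IFN-gamma mixture; protective hits raise ATP signal compared with cytokine alone wells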", "assay_type": "functional", "conditions": "Rattus norvegicus"}, "HEK293 [15]": {"test_system": "HEK293", "experiment": "cells", "assay_type": "functional, cell-based", "conditions": "Homo sapiens", "remark": "listed apart in the source"}, "HEK293 [16]": {"test_system": "HEK293", "experiment": "cells", "assay_type": "functional, cell-based", "conditions": "Homo sapiens", "remark": "listed apart in the source"}, "[17]": {"experiment": "NIH3T3 cell viability loss – ATP luminescence, mouse fibroblasts, counter-screen, dose response (AID 2010);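 further: cells exposed to compound for about 90 hours before reading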", "assay_type": "functional, cell-based"}, "[18]": {"experiment": "NIH-3T3 fibroblast cytotoxicity, dose response, cytotoxicity control, cell-based, fluorescence, Alamar Blue, secondary assay (AID 2327);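 further: NIH-3T3 mouse fibroblasts cultured with fluconazole at 8 µg/mL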", "assay_type": "functional"}, "[19]": {"molecular_target": "Melanin-concentrating hormone receptor 1 (Homo sapiens, UniProt Q99705)", "sequence (Q99705 whole entry)": "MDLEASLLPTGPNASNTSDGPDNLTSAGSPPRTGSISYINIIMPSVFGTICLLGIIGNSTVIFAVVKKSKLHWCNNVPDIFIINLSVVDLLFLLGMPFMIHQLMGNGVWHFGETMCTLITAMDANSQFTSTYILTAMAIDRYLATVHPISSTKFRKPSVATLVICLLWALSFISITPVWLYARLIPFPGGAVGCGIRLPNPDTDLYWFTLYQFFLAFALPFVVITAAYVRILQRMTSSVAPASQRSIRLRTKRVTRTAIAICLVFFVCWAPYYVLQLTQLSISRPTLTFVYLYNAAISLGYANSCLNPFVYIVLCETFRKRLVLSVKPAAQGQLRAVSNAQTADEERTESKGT", "experiment": "Late-stage fluorescence-based counterscreen for antagonists of the G-protein coupled receptor 7 (GPR7): cell-based dose response assay to identify antagonists of the melanin-concentrating hormone receptor 1 (MCHR1). [Related pubchem assays (depositor defined):AID1861, AID1880, AID1952, AID2148, AID2251, AID2257, AID485339]", "assay_type": "functional"}, "[20]": {"molecular_target": "Voltage-gated N-type calcium channel alpha-1B subunit/Amyloid beta A4 precursor protein-binding family A member 1 (Homo sapiens, UniProt Q00975+Q02410)", "experiment": "disruptors of Mint-PDZ/N-type channel peptide interaction – biochemical, HTRF, set 2, SAR follow-up (AID 434980)", "assay_type": "functional"}, "[21]": {"molecular_target": "Serine/threonine-protein phosphatase (Homo sapiens, UniProt Q9BPW0)", "sequence (Q9BPW0 whole entry)": "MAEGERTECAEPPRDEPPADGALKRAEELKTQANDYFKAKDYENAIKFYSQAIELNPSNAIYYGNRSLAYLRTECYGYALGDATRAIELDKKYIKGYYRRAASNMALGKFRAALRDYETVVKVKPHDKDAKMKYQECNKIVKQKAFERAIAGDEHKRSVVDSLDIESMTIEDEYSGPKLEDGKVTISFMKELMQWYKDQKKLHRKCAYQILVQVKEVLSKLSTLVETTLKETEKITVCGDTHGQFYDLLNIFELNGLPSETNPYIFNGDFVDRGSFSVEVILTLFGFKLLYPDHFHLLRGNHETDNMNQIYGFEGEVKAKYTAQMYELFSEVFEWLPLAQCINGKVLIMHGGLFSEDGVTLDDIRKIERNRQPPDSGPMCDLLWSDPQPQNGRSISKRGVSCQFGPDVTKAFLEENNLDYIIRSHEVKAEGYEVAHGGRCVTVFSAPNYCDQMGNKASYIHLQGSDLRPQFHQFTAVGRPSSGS", "experiment": "Counterscreen for inhibitors of PP1: fluorescence-based biochemical high throughput dose response assay to identify inhibitors of Protein Phosphatase 5 (PP5). [Related pubchem assays: 2034 (Summary (PP5 inhibitors)), 1987 (PP5 inhibitors in singlate), 2235 (PP1 inhibitors in singlate)]"}, "[22]": {"molecular_target": "Serine/threonine-protein phosphatase PP1-alpha catalytic subunit (Homo sapiens, UniProt P62136)", "sequence (P62136 whole entry)": "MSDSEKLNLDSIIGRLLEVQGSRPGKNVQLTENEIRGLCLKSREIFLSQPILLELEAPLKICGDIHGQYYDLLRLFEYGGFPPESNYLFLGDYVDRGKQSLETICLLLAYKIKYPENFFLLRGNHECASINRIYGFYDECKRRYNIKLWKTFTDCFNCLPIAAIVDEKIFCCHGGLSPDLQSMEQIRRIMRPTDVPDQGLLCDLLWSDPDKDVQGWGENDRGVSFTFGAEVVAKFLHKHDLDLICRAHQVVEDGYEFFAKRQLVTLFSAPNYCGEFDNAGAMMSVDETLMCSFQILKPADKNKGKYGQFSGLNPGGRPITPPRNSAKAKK", "experiment": "inhibition of protein phosphatase 1 activity – biochemical, fluorescence, dose response (AID 2403);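 further: phosphatase turnover of OMFP into fluorescent 3-O-methylfluorescein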"}, "[23]": {"molecular_target": "Mothers against decapentaplegic homolog 3 (Homo sapiens, UniProt P84022)", "sequence (P84022 whole entry)": "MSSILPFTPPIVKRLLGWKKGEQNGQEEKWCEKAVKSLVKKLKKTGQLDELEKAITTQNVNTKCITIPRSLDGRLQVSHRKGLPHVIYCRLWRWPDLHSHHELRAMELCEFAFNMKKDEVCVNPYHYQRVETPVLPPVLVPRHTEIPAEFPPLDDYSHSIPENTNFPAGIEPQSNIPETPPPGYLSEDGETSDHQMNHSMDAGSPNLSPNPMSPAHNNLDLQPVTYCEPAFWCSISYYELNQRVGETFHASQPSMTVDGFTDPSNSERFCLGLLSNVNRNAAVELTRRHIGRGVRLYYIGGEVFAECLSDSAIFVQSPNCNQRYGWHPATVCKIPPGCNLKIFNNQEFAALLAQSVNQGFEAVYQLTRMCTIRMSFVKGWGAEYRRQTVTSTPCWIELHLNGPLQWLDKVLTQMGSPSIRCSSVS", "experiment": "blockers of Smad3 complex formation in lysate – cell lysate, secondary confirmation, chemiluminescent ELISA, HEK293 lysate, dose response (AID 1058)", "assay_type": "functional"}, "Cytochrome P450 3A4 [24]": {"molecular_target": "T2, Cytochrome P450 3A4 (Homo sapiens, UniProt P08684)", "T2 sequence (P08684 whole entry)": "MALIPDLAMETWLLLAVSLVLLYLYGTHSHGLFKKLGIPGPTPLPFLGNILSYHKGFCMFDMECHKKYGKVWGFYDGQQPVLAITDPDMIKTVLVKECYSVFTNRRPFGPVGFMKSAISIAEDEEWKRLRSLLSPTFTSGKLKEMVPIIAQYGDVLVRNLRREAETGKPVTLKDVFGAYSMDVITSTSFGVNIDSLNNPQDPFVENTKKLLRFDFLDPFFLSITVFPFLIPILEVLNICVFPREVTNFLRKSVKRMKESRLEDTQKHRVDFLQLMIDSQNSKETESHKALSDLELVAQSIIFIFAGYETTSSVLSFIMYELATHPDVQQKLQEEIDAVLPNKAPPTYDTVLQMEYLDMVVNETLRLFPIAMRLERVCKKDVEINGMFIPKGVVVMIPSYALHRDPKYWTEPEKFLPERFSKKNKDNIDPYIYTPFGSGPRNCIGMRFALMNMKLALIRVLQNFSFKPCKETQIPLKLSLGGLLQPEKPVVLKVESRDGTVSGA", "conditions": "read-out: Potency"}, "Cytochrome P450 3A4 [25]": {"molecular_target": "T2, Cytochrome P450 3A4", "conditions": "Potency"}, "[26]": {"molecular_target": "Photoreceptor-specific nuclear receptor (Homo sapiens, UniProt Q9Y5X4)", "sequence (Q9Y5X4 whole entry)": "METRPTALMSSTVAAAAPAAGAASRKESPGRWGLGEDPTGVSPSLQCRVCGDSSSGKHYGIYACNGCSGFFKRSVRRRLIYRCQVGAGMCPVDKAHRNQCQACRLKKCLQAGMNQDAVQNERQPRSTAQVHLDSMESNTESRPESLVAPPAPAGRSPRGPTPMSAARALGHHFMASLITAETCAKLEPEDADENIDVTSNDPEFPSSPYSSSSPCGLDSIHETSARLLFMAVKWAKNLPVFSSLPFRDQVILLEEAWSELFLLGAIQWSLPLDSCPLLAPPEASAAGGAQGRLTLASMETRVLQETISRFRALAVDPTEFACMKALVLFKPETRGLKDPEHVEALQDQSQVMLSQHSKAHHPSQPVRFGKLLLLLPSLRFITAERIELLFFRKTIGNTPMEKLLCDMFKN", "assay_type": "functional"}, "[27]": {"molecular_target": "Peroxisome proliferator-activated receptor gamma/Nuclear receptor corepressor 2 (Homo sapiens, UniProt P37231+Q9Y618)", "assay_type": "functional"}, "Vero": {"test_system": "Vero", "experiment": "host cell viability loss, Vero E6 – synthesized analogs, cytotoxicity control for West Nile virus antiviral project, SAR follow-up (AID 2244)", "assay_type": "functional", "conditions": "Chlorocebus sabaeus"}}, "note": "The source made the active and inactive calls."}
{"smiles": "C(=C\\c1sc(Nc2ccccc2)n[n+]1-c1ccccc1)/c1ccccc1", "values": [{"measurement": "IC50", "setting": "[1]", "value": "48.8 µM (inactive)"}, {"measurement": "IC50", "setting": "Beta-galactosidase", "value": "> 66.6 µM (inactive)"}]}
{"smiles": "Oc1c(Br)cc(Br)cc1/C=N/Nc1ccc(Cl)nn1", "values": [{"measurement": "EC50", "setting": "Streptococcus", "value": "0.899 µM (active)"}, {"measurement": "EC50", "setting": "[2]", "value": "> 12 µM (inconclusive)"}, {"measurement": "IC50", "setting": "HEK293 [3]", "value": "> 20 µM (inactive)"}, {"measurement": "IC50", "setting": "HEK293 [4]", "value": "> 20 µM (inactive)"}, {"measurement": "EC50", "setting": "[5]", "value": "0.495 µM (active)"}, {"measurement": "EC50", "setting": "[6]", "value": "< 0.1 µM (active)"}, {"measurement": "EC50", "setting": "[7]", "value": "> 20 µM (inactive)"}, {"measurement": "EC50", "setting": "[8]", "value": "0.287 µM (active)"}, {"measurement": "EC50", "setting": "cells", "value": "0.502 µM (active)"}, {"measurement": "EC50", "setting": "[9]", "value": "< 0.03 µM (active)"}, {"measurement": "EC50", "setting": "[10]", "value": "> 180 µM (inactive)"}, {"measurement": "EC50", "setting": "[11]", "value": "0.931 µM (active)"}, {"measurement": "EC50", "setting": "[12]", "value": "24.3 µM (active)"}, {"measurement": "EC50", "setting": "HEK293 [13]", "value": "> 20 µM (inactive)"}, {"measurement": "EC50", "setting": "[14]", "value": "0.249 µM (active)"}, {"measurement": "AC50", "setting": "INS1", "value": "0.22 µM (active)"}, {"measurement": "IC50", "setting": "HEK293 [15]", "value": "> 20 µM (inactive)"}, {"measurement": "IC50", "setting": "HEK293 [16]", "value": "> 20 µM (inactive)"}, {"measurement": "EC50", "setting": "[17]", "value": "> 30 µM (not active)"}, {"measurement": "EC50", "setting": "[18]", "value": "45.2 µM (active)"}]}
{"smiles": "COc1ccc(Oc2c(Cl)cnn(-c3cccc4ccccc34)c2=O)cc1", "values": [{"measurement": "IC50", "setting": "[19]", "value": "8.4 µM (active)"}]}
{"smiles": "O=C(NCCc1ccc(Cl)cc1)c1cc(-c2ccco2)nc2ccccc12", "values": [{"measurement": "IC50", "setting": "[20]", "value": "31.1 µM (active)"}]}
{"smiles": "CCOC(=O)c1sc(N2C(=O)C(O)=C(C(=O)c3ccco3)C2c2cccc([N+](=O)[O-])c2)nc1C", "note": "(stereo unspecified)", "values": [{"measurement": "IC50", "setting": "HEK293 [4]", "value": "> 20 µM (inactive)"}, {"measurement": "IC50", "setting": "[21]", "value": "> 67 µM (not active)"}, {"measurement": "IC50", "setting": "[22]", "value": "11.8 µM (not active)"}, {"measurement": "EC50", "setting": "HEK293 [13]", "value": "> 20 µM (inactive)"}, {"measurement": "IC50", "setting": "HEK293 [15]", "value": "> 20 µM (inactive)"}, {"measurement": "IC50", "setting": "HEK293 [16]", "value": "> 20 µM (inactive)"}]}
{"smiles": "COc1ccc(C(c2cc3c(cc2O)OCO3)N2CCCCC2)cc1", "note": "(stereo unspecified)", "values": [{"measurement": "IC50", "setting": "[23]", "value": "< 2.5 µM (not active)"}]}
{"smiles": "COC(=O)C1=C(C)N(Cc2ccccc2)C2=C(C(C)=O)C[C@@](O)(C(=O)OC)C(=O)N2C1c1ccccc1", "note": "(stereo partly specified)", "values": [{"measurement": "AC50", "setting": "Cytochrome P450 3A4 [24]", "value": "3.16 µM (inconclusive)"}, {"measurement": "AC50", "setting": "Cytochrome P450 3A4 [25]", "value": "3.16 µM (inconclusive)"}]}
{"smiles": "COc1ccc(-n2c(=S)[nH]c3c(oc4ccccc43)c2=O)cc1", "values": [{"measurement": "IC50", "setting": "[26]", "value": "2.32 µM (active)"}, {"measurement": "IC50", "setting": "[27]", "value": "4.93 µM (active)"}]}
{"smiles": "O=C(Nc1nc(-c2ccc(Cl)cc2)cs1)c1ccccc1F", "values": [{"measurement": "CC50", "setting": "Vero", "value": "> 40 µM (active)"}]}
